Where “and” joins values, the source holds several entries; their conditions need not be identical. Equal entries are not always repeated.
Experiment: xn = mol fraction of the nth substance listed
Details: Fluid (supercritical or subcritical phases), Vibrating tube method

Cc1c(C)c2c(c(C)c1O)CC[C@@](C)(CCC[C@H](C)CCC[C@H](C)CCCC(C)C)O2 [(+)-α-tocopherol] + O=C=O
mass density
Details | x1 = 0.0004 | x1 = 0.00042 | x1 = 0.00043 | x1 = 0.0005 | x1 = 0.00059 | x1 = 0.00074 | x1 = 0.00081
308.15 K, 10000 kPa | 720.4 kg/m3 | 718.9 kg/m3 and 720.9 kg/m3 | 720.6 kg/m3 | 720.3 kg/m3 | 720.2 kg/m3 | 721.2 kg/m3 | 720.9 kg/m3
308.15 K, 15000 kPa | 817.8 kg/m3 | 816.9 kg/m3 and 818.1 kg/m3 | 818.2 kg/m3 | 817.9 kg/m3 | 817.8 kg/m3 | 818.6 kg/m3 | 818.7 kg/m3
308.15 K, 20000 kPa | 867.2 kg/m3 | 866.7 kg/m3 and 867.6 kg/m3 | 867.5 kg/m3 | 867.4 kg/m3 | 867.3 kg/m3 | 868 kg/m3 | 868.2 kg/m3
308.15 K, 30000 kPa | 929.5 kg/m3 | 929.3 kg/m3 and 929.6 kg/m3 | 929.6 kg/m3 | 929.6 kg/m3 | 929.6 kg/m3 | 930 kg/m3 | 930.1 kg/m3
308.15 K, 40000 kPa | 971.9 kg/m3 | 971.9 kg/m3 and 972 kg/m3 | 972 kg/m3 | 972 kg/m3 | 972 kg/m3 | 972.2 kg/m3 | 972.3 kg/m3
313.15 K, 10000 kPa | 639 kg/m3 | 639 kg/m3 and 638.8 kg/m3 | 638.7 kg/m3 | 639.4 kg/m3 | 638.9 kg/m3 | 640 kg/m3 | 639.8 kg/m3
313.15 K, 15000 kPa | 782.3 kg/m3 | 782.6 kg/m3 and 782.3 kg/m3 | 782.5 kg/m3 | 782.8 kg/m3 | 782.4 kg/m3 | 783.3 kg/m3 | 783.1 kg/m3
313.15 K, 20000 kPa | 841 kg/m3 | 841.2 kg/m3 and 840.9 kg/m3 | 841.2 kg/m3 | 841.3 kg/m3 | 841.1 kg/m3 | 841.7 kg/m3 | 841.6 kg/m3
313.15 K, 30000 kPa | 910.2 kg/m3 | 910.3 kg/m3 and 910.1 kg/m3 | 910.3 kg/m3 | 910.4 kg/m3 | 910.3 kg/m3 | 910.7 kg/m3 | 910.6 kg/m3
313.15 K, 40000 kPa | 955.9 kg/m3 | 955.9 kg/m3 and 955.7 kg/m3 | 955.9 kg/m3 | 955.9 kg/m3 | 956 kg/m3 | 956.1 kg/m3 | 956 kg/m3
323.15 K, 10000 kPa | 398.5 kg/m3 | 398.3 kg/m3 and 398.5 kg/m3 | 398.3 kg/m3 | 398.4 kg/m3 | 398.8 kg/m3 | 398.9 kg/m3 | 398.7 kg/m3
323.15 K, 15000 kPa | 703.6 kg/m3 | 703.1 kg/m3 and 703.4 kg/m3 | 703.4 kg/m3 | 703.5 kg/m3 | 703.4 kg/m3 | 704.1 kg/m3 | 704.1 kg/m3
323.15 K, 20000 kPa | 786.2 kg/m3 | 785.8 kg/m3 and 786 kg/m3 | 786 kg/m3 | 786 kg/m3 | 786 kg/m3 | 786.6 kg/m3 | 786.6 kg/m3
323.15 K, 30000 kPa | 871.2 kg/m3 | 870.9 kg/m3 and 871.1 kg/m3 | 871 kg/m3 | 871.1 kg/m3 | 871.1 kg/m3 | 871.5 kg/m3 | 871.6 kg/m3
323.15 K, 40000 kPa | 923.3 kg/m3 | 923.1 kg/m3 and 923.3 kg/m3 | 923.3 kg/m3 | 923.3 kg/m3 | 923.2 kg/m3 | 923.6 kg/m3 | 923.6 kg/m3
333.15 K, 10000 kPa | 297.2 kg/m3 | 297.1 kg/m3 and 296.8 kg/m3 | 296.9 kg/m3 | 297.1 kg/m3 | 297.3 kg/m3 | 297.7 kg/m3 | 297.7 kg/m3
333.15 K, 15000 kPa | 608.6 kg/m3 | 608.9 kg/m3 and 608.8 kg/m3 | 608.7 kg/m3 | 608.7 kg/m3 | 609.3 kg/m3 | 609.3 kg/m3 | 609.4 kg/m3
333.15 K, 20000 kPa | 725.7 kg/m3 | 725.6 kg/m3 and 725.5 kg/m3 | 725.5 kg/m3 | 725.7 kg/m3 | 725.8 kg/m3 | 726.1 kg/m3 | 726.2 kg/m3
333.15 K, 30000 kPa | 830.3 kg/m3 | 830.3 kg/m3 and 830.2 kg/m3 | 830.2 kg/m3 | 830.3 kg/m3 | 830.5 kg/m3 | 830.7 kg/m3 | 830.7 kg/m3
333.15 K, 40000 kPa | 890.2 kg/m3 | 890.2 kg/m3 and 890.1 kg/m3 | 890.1 kg/m3 | 890.1 kg/m3 | 890.3 kg/m3 | 890.5 kg/m3 | 890.5 kg/m3
